Patent US4083987A, “4-Imino-1,3-diazabicyclo-(3.1.0)-hexan-2-one as a cancerostat and immuno-stimulant” (Boehringer Mannheim GmbH, priority 1975, dated 1978)

Key:
[1] = tested on: antibody-forming spleen cells; test: Number of antibody-forming spleen cells by Jerne's method after intravenous administration; format: in vivo, mice; details: three days; for number of antibody-forming spleen cells: mice immunized with sheep erythrocytes, control 4,600; for antibody-forming spleen cells, % of the control: mice
Experimental: 20 male white mice with a body weight of 20 to 25 g were each immunized with 1 ml preserved sheep erythrocytes (1 ml contains 5 × 10^8 erythrocytes). On the same day, 4-imino-1,3-diazabicyclo[3.1.0]hexan-2-oneor a comparative active material, dissolved in 5 ml physiological saline/kg. mouse body weight, were administered intravenously. For control purposes, 20 animals were also immunized with 1 ml sheep erythrocytes and treated with 5 ml/kg physiological saline. Three days after administration, the spleens of the animals were removed under sterile conditions and the number of antibody-forming spleen cells determined according to Jerne's technique. The individual values were determined.

[2] = Acute toxicity (LD50), mice; details: mouse, in vivo, po
leukocytes = test: Immunity-stimulating action: corpuscular blood components (leukocytes, lymphocytes, erythrocytes) after a single intravenous administration; format: in vivo, Sprague-Dawley rats; details: for number of leukocytes/mm^3: third day, control 7,300
Experimental: The active material, dissolved in 5 ml physiological saline, was administered intravenously into a vein in the tails of 8 Sprague-Dawley rats with an average body weight of 200 to 250 g. As controls, there were used 8 rats which were only treated with 5 ml physiological saline per kg. body weight. In the following days, 1 to 2 drops of blood were taken from a tail vein and the corpuscular blood components determined. The average values were determined statistically from the 8 values of the individual animals.

[3] = Acute toxicity (LD50), rats; details: rat, in vivo, single intravenous dose
[4] = Solubility in water, physiological saline and aqueous alkali metal hydroxide solutions; format: physicochemical
Walker sarcoma 256 = test: Cancerostatic effectiveness: inhibition of tumor growth of Walker sarcoma 256 after a single administration; format: in vivo, Sprague-Dawley rats; details: for % inhibition of the growth of Walker sarcoma 256: single administration, tumor weight after 10 days
Experimental: Sprague-Dawley rats with a body weight of 80 to 120 g and an age of 6 to 8 weeks were subcutaneously inoculated in the neck with tumor cells. In each case, there was used 0.1 ml of an aqueous suspension of about 10^6 tumor cells of the Walker sarcoma 256 (solid, rat).
4-Imino-1,3-diazabicyclo[3.1.0]hexan-2-one was dissolved in physiological saline solution (in each case, the desired amount in 5 ml solution/kg body weight of experimental animal). 6 Hours after inoculation of the animals, these solutions were administered intravenously or orally by means of a stomach tube. The control animals received 5 ml/kg body weight of physiological saline. 20 experimental animals and 20 control animals were used per experiment. The animals were sacrificed with ether after 10 days, the tumors extirpated and the weight of the tumors of the control group compared with those of the experimental group.

Stability = format: physicochemical
in vivo = details: mouse, iv
[5] = single intravenous, rats, in words

O=P1(N(CCCl)CCCl)NCCCO1 (centres unmarked) [cyclophosphamide]
number of antibody-forming spleen cells ([1]; 125.0 mg/kg intravenous): 460 spleen cells | antibody-forming spleen cells, % of the control ([1]; 125.0 mg/kg intravenous): 10 % of the control

N=C1NC(=O)N2CC12 (centres unmarked) [4-imino-1,3-diazabicyclo-[3.1.0]hexan-2-one]
LD50 [2]: > 4000 mg/kg | number of leukocytes/mm^3 (leukocytes; 2 mg/kg rat, single intravenous): 10,300 leukocytes/mm^3 | number of leukocytes/mm^3 (leukocytes; 5 mg/kg rat, single intravenous): 9,800 leukocytes/mm^3 | number of leukocytes/mm^3 (leukocytes; 10 mg/kg rat, single intravenous): 10,800 leukocytes/mm^3 | number of leukocytes/mm^3 (leukocytes; 20 mg/kg rat, single intravenous): 12,300 leukocytes/mm^3 | number of leukocytes/mm^3 (leukocytes; 40 mg/kg rat, single intravenous): 10,800 leukocytes/mm^3 | number of leukocytes/mm^3 (leukocytes; 75 mg/kg rat, single intravenous): 11,800 leukocytes/mm^3 | number of leukocytes/mm^3 (leukocytes; 150 mg/kg rat, single intravenous): 8,000 leukocytes/mm^3 | number of leukocytes/mm^3 (leukocytes; 400 mg/kg rat, single intravenous): 6,500 leukocytes/mm^3 | dosage necessary for immunity stimulation (leukocytes; deduced from the experiments, all at once or in several doses): 1 to 50 mg/kg body weight | time after which the effect slowly decreases (leukocytes; immunity stimulation): about 2 weeks | number of leukocytes (leukocytes; [5]): increased considerably | percentage proportion of the lymphocytes (leukocytes; [5]): increased | number of erythrocytes (leukocytes; single intravenous, rats, whole experimental period): did not change significantly | time until the values of the control animals were again reached (leukocytes; single intravenous, rats, only after the expiry of): 20 to 25 days | LD50 [3]: 660 mg/kg | water solubility [4]: good water solubility | solubility ([4]; physiological saline and aqueous alkali metal hydroxide solutions): very readily soluble | number of antibody-forming spleen cells ([1]; 2.5 mg/kg intravenous): 23,000 spleen cells | antibody-forming spleen cells, % of the control ([1]; 2.5 mg/kg intravenous): 500 % of the control | tumor growth (Walker sarcoma 256; intravenous and oral administration): significantly inhibited | % inhibition of the growth of Walker sarcoma 256 (Walker sarcoma 256; intravenous, 0.1 mg/kg): 7.5% | % inhibition of the growth of Walker sarcoma 256 (Walker sarcoma 256; intravenous, 1.0 mg/kg): 17.5% | % inhibition of the growth of Walker sarcoma 256 (Walker sarcoma 256; intravenous, 10.0 mg/kg): 49.5% | % inhibition of the growth of Walker sarcoma 256 (Walker sarcoma 256; intravenous, 100.0 mg/kg): 31.0% | % inhibition of the growth of Walker sarcoma 256 (Walker sarcoma 256; intravenous, 200.0 mg/kg): 39.5% | % inhibition of the growth of Walker sarcoma 256 (Walker sarcoma 256; oral, 5.0 mg/kg): 20.0% | % inhibition of the growth of Walker sarcoma 256 (Walker sarcoma 256; oral, 125.0 mg/kg): 62.0% | acid stability (Stability; acid): acid labile | stability in dry form (Stability; dry form): stable in dry form | LD50 (in vivo): 750 mg/kg

phytohaemagglutinin
number of antibody-forming spleen cells ([1]; 500.0 mg/kg intravenous): 1,400 spleen cells | antibody-forming spleen cells, % of the control ([1]; 500.0 mg/kg intravenous): 30 % of the control
